From US8790883B2, “Methods of identifying NF-κB inhibitors” (priority 2003, dated 2014)
pIC50, pKd: −log10 of the molar value. * marks the point of attachment. BODIPYFLEthylmaleimide = Cc1cc(C)n2c1C=C1C=CC(CCC(=O)NCCN3C(=O)CC(*)C3=O)=[N+]1[B-]2(F)F

Key:
[1] = molecular target: T1, CC2 peptide (minimal oligomerization domain of NEMO) (Mus musculus, UniProt O88522); test: Fluorescence anisotropy titration with CC2 peptide; format: binding, murine
T1 construct: made in house; host or cells: chemical solid-phase synthesis (Fmoc/tBu), no expression host
T1 sequence (O88522 253-287): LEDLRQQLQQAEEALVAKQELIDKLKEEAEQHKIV
Method: (A) Direct titration of BODIPY-Ant-CC2 (1 μM) with CC2 by fluorescence anitropy. The concentration of CC2 was determined by amino acid analysis. Anisotropy values of BODIPY-Ant-CC2 in milliunits (mA) were plotted against an increasing concentration of the CC2 peptide. […] The two dashed lines represent a stoichiometric titration and intersect at an CC2 concentration of […]. Given the 1 μM concentration of the BODIPY-Ant-CC2, this gives a complex stoechiometrie of 0.8. (B) Direct titration of BODIPY-Ant-LZ (0.1 μM) with CC2 by fluorescence anitropy. […]
Anisotropy measurements were performed with a PTI QUANTAMASTER™ fluorometer equipped with polarizers for the excitation and emission beams. […] Steady-state fluorescence anisotropy was expressed as millianisotropy (mA) and was calculated according to the equations: (1) A=(IVV−GIVH)/(IVV+2GIVH); (2) G=IHV/IHH.; where A is anisotropy, G is a correction factor for wavelength-dependent distortion and I is the fluorescence intensity component (subscript referring to the vertical and horizontal positioning at the excitation and emission polarizers, respectively). […] The dissociation constant parameter was estimated by globally fitting the anisotropy data to binding isotherm equation as described in Agou et al. (J Biol Chem. 2004 Jul. 2; 279(27):27861-9) using KALEIDAGRAPH™ nonlinear regression software (Synergy Software, reading PA). […]

[2] = test system: LPS-induced NF-κB activation; test: NF-κB inhibition assay, first procedure: LPS-induced NF-κB dependent β-galactosidase reporter in 70Z/3-C3 cells; format: cell-based, murine
Method: The resulting cell line, 70Z3-C3, was incubated for 2 hours in the absence or in the presence of 20 μM of antennapedia peptide (Ant), or BODIPY-labeled antennapedia peptide (BODIPY-Ant), or BODIPY-labeled antennapedia peptide coupled to CC2 (BODIPY-Ant-CC2) or LZ (BODIPY-Ant-LZ) peptides, After peptide internalization, cells were treated for 5 hours with LPS (3 μg/ml, (+) in left panel) or untreated (right panel and (−) in left panel) and the NF-κB activity was measured by β-galactosidase assay. Error bars represent the standard deviation of three separate experiments. (B) Concentration dependence of inhibition of LPS-induced NF-κB activation by BODIPY-Ant-CC2 peptide (left panel) or BODIPY-Ant-LZ peptide (right panel). Cells were treated as in (A) but with different concentration of peptide as indicated. The potential of each peptide to inhibit LPS-induced NF-κB activation was measured by determining the IC50 value that correspond to 50% inhibition of LPS-induced NF-κB activation as compared to the control (no peptide) (C). (D) Effect of the N-fusion sequence of antennapedia on the inhibition of NF-κB activation. Control (no peptide) or CC2, or LZ peptides, with (BODIPY-ANT-CC2, BODIPY-ANT-LZ) or without the antennapedia sequence at the N-terminus (CC2, LZ) were incubated for 2 hours with 70Z3-C3 cells followed with (+) or without (−) the LPS-treatment for 3 hours. NF-κB activity was then measured by β-galactosidase assay.
In a first procedure 2.2×10^5 70Z/3-C3 cells in 220 μl of RPMI 1640 supplemented with 10% fetal calf serum (FCS) and 50 μM β-mercaptoethanol were placed in a 96-well plate and incubated with various concentrations of peptide (0 to 20 μM) at 37° C. in 5% CO2 incubator. After two hours an equal portion (100 μl) of each cell sample transferred in two wells containing each 10^5 cells. One aliquot of cells was then treated for 5 hours with lipopolysaccharides from Salmonella abortus (Sigma) at 0.5 μg/ml final concentration, and the other one left-treated. After 5 hours, cells were centrifuged at 400×g for 5 min at room temperature and the cell pellets were washed three times with cold PBS (250 μl) by centrifugation. Cells were then lysed in the lysis buffer (25 mM tris-phosphate buffer at pH 7.8 containing 8 mM magnesium chloride, 1 mM dithioerythreitol, 1% Triton X-100, 15% glycerol and a protease inhibitor mixture (Roche)), and samples were centrifuged at 4° C. for 20 min to clarify the lysate. The supernatant was then kept on ice, and 30 μl was then assayed to measure the β-galactosidase activity with a plate luminometer (Berthold) using the GALACTON-STAR™ as chemiluminescent substrate (BD Biosciences Clontech, Bronstein et al., 1989). Background of reaction was measured by mixing for 1 hour 30 μl of lysis buffer with the reaction buffer (196 μl) and the GALACTON-STAR™ substrate (4 μl) provided by BD Biosciences. In a second procedure and a more stringent assay, 70Z/3-C3 cells (2.2×105 in 220 μl medium) were centrifuged at 400×g at room temperature after peptide internalization for 2 hours, and cell pellets were washed three times with 200 μl of PBS by centrifugation. Cells were then diluted three times with complete medium, and allowed to grow for at least 24 hours. The following steps are identical to the first procedure.
To analyze the inhibition potential of LPS-induced NF-κB activation by cell permeable BODIPY-Ant-CC2 and BODIPY-Ant-LZ peptides, the present inventors stably transfected the murine pre-B 70Z3 cell line with p12XlacZ-kB, which bears the β-galactosidase reporter gene under the control of the NF-κB transcription factor.

[3] = test system: 70Z/3-C3 cells; test: FACS analysis of cellular uptake of BODIPY-labelled peptides; conditions: 0.2, 2 or 20 μM, 5 h, 37° C.
Method: (A) Cellular delivery of NEMO peptides mediated by conjugation with the Antennapedia peptide.
0.5×10^6 70Z/3-C3 cells in 0.5 ml were incubated at 37° C. for different times and with various concentrations of peptides as indicated in the Figure legends. The cell suspension was centrifugated at 1,000×g at room temperature and the cell pellet was then washed three times with PBS buffer (1 ml), and finally was resuspended with 500 μl of PBS buffer containing 0.1% sodium azide. Fluorescence analysis was performed with a FACSCalibur (BD Biosciences) and a minimum of 15,000 events per sample was selected. All experiments were performed in duplicates.

[4] = test system: LPS-induced NF-κB activation; test: More stringent NF-κB inhibition assay, second procedure: peptide internalization, washing, 24 h growth, then LPS; format: cell-based, murine; conditions: 10 μM peptide, LPS 5 h after 24 h growth
Source text: Left panels show a helical wheel diagram of CC2 (A) and LZ (B) peptides. The view is from the top the molecule. The (a) through (g) positions, which are an essential feature of coiled coil sequence (Vinson, 2002, Mol. Cell. Biol.) represent sequential positions in each peptide sequence. The first (a) and fourth (d) positions that are generally occupied by hydrophobic amino acids constitute the hydrophobic core for parallel as well as antiparallel-coiled coils. Mutations that were introduced in (a) positions of the CC2 variant (BODIPY-Ant-CC2 (Mu); shown as residues 6-40 of SEQ ID NO:3, with glycine mutations corresponding to residues 6-40 of SEQ ID NO:5) or in (d) positions of the LZ variant (BODIPY-Ant-(Mu) are shown. In the right panels, 70Z3-C3 cells were incubated for 2 hours in the absence (control) or in the presence of 10 μM of cell permeable wild type (BODIPY-Ant-CC2 (WT)) or mutant (BODIPY-Ant-CC2 (Mu)) CC2 peptides (A) or wild type (BODIPY-Ant-LZ (WT)) or mutant (BODIPY-Ant-(Mu)) LZ peptides (B). The cells were then extensively washed to remove the excess peptide which had not been internalized and the cells were then diluted three times and allowed to grow for 24 hours before treatment for 5 hours with (+) or without LPS (−). NF-κB activity was measured using the β-galactosidase assay. Error bars represent the standard deviation of two independent experiments.
(A) Sequence alignment of the NEMO-derived LZ (residues 301-336 of SEQ ID NO: 12) and the GCN4 peptides (residues 23-55 of SEQ ID NO:8). Both coiled-coil motifs were aligned using clustalX. Identical and similar amino acid residues (shaded) are indicated by (!) or (*), respectively. (B) Overview and helical wheel diagram of the GCN4 coiled-coil (top view). The amino-acid sequence of GCN4 is shown with its corresponding [a-g] positions and residues that differ from the corresponding NEMO-derived LZ sequence are boxed according to their degree of conservation. Identical (open square) and similar residues (open triangle) are indicated. […] NF-κB activity was measured using the b-galactosidase assay. […]

[5] = Circular dichroism studies of helix stability; format: physicochemical
Source text: From circular dichroism studies (CD), it appears that CC2 and LZ peptides adopt a helicoidal structure, depending on their concentration. […] RMN and Rayon X Diffraction studies have confirmed the structure of CC2.

[6] = Binding of NLM peptides, Hill coefficient calculation of cooperativity indices
Source text: The present inventors compared NLM-DR to the corresponding NLM peptide by measuring the respective cooperativity indices, which evidence an advantage of NLM-DR mutated peptide over the wild-type.
The calculation of the “cooperativity indice” by means of Hill coefficient is based on the following formula Boundmax×L^n/(KD^n+L^n)
Wherein • Boundmax is the maximum concentration of the bound ligand, • L is the concentration of the free ligand, • n is the cooperativity indice and • KD, is the affinity constant of the ligand by the protein.

Affinity relative to wild-type NLM peptide, without accounting for cooperativity [6] | Substance | pKd [1] | Binding stoichiometry of complex with CC2 ([1]; 1 μM BODIPY-Ant-CC2 titrated with CC2) | LPS-induced NF-κB activation in presence of peptide ([2]; 20 μM peptide 2 h, LPS (3 μg/ml) 5 h, 70Z3-C3 cells) | Reduction of NF-κB activity as compared with a control peptide ([2]; 20 μM peptide, B lymphocytes stimulated by LPS) | pIC50 ([2]; 70Z3-C3 cells, peptide 2 h, then LPS 5 h, β-galactosidase assay, read-out: IC50, 50% inhibition of LPS-induced NF-κB activation as compared to the control (no peptide)) | Dependency of intracellular concentration on incubated concentration [3] | Reduction of NF-κB activation [4] | Helix stability by circular dichroism [5]
 | Ac-C(BODIPYFLEthylmaleimide)RQIKIWFQNRRMKWKKSKGMQLEDLRQQLQQAEEALVAKQELIDKLKEEAEQHKIV-NH2 [BODIPY-Ant-CC2 (WT)] | 4.82 | 0.8 | decreased significantly | 70% | 4.66 | linear dependancy | 1.7 fold | 
75 times | LKAQADIYKARFQAERHAREK [NLM-DR] |  |  |  |  |  |  |  | helix more stable than the wild-type peptide
